Laboratory results reported in US20250333376A1, “CRYSTAL FORMS OF BMX AND PREPARATION THEREOF” (Novelwise Pharmaceutical Corporation, priority 2024, published 2025).
In brackets after ≈: the same amount, converted by molar mass. Entries after “also recorded” stand apart in the source; their conditions may differ. Like-named read-outs stand apart in the source and are kept apart here.

How the values were obtained:
Type in all cases: physicochemical
[1] = Photo stress stability, amorphous form versus Crystal Form A; settings: for Degradation: 48 hours of exposure to photo-stress conditions (cool white fluorescent lamp and UV fluorescent lamp 320-400 nm)
Description: The amorphous Form and the Crystal Form A of Compound BMX samples were exposed at a cool white fluorescent lamp that has an output similar to that specified by ISO 10977 and UV fluorescent lamp with a spectral distribution from 320 nm to 400 nm for evaluating the photo stress stability.

[2] = Solubility of amorphous material of Compound BMX by the shake flask method; settings: for solubility at 24 h / solubility at 15 min: organic solvent or mixture, thermodynamic from solid, shake flask
Description: The solubility of amorphous material of Compound BMX was determined by the shake flask method. The amorphous material was obtained by dissolving 500 mg of the Crystal From A of Compound BMX in 10 mL dichloromethane, this solution was evaporated to dryness in vacuum conditions (0 mbar, RT).
The solvents for the solubility determination were selected based on the Principal Component Analysis (PCA) of properties, which means that some pharmaceutically unattractive solvents were included to create a better understanding of the parameter space. The Principal Component Analysis focusses on polarity, polarizability and hydrogen bonding.
Subsequently, the samples were filtered and diluted for LC analysis and the concentration is determined using a calibration line.

[3] = Stability of polymorphic forms stored at 40° C./75% RH for 4 days
Description: Both Crystal Form A and Crystal Form D were found in different solvent combinations using different crystallization techniques. […] Crystal Form C was only observed once, being found in a slurry experiment at 50° C. in DMSO/Ethanol (60/40-%). […] All plates were stored at 40° C./75% RH for 4 days in order to determine the stability of the polymorphic forms.

[4] = Stability test of Form B slurried in water
[5] = Hygroscopicity determination by DVS
Description: The hygroscopicity of the Crystal Form A of Compound BMX was determined using Surface Measurement Systems Ltd. DVS resolution equipment. The sample was loaded into balance pan, typically 10-30 mg, and equilibrated at 0% relative humidity (RH). When the material has dried, the RH is increased with 10% per step for 1 hour per increment, ending at 95% RH. After completion of the sorption cycle, the sample was dried using the same method. […] The software used for data collection is DVS Control Software for 21 CFR Part 11 v1.0.3.0. Data analysis is performed using DVS Standard Analysis Suite v7.2.0.9 (Standard).

[6] = Solubility of Crystal Form A in process solvents and aqueous buffer systems; settings: for solubility at 24 h: thermodynamic from solid
Description: The solubility of this form was tested in the process solvents (Ethyl acetate and hexane) and in aqueous buffer systems. 100 mg of Crystal Form A of Compound BMX was weighed into 4 mL vials with 2 mL of the specified solvent/aqueous buffer system being added. These solutions were shaken at room temperature for 24 hours. The pH was monitored in time and remained in the correct range. Samples were filtered and diluted (5× in ACN/MeOH 1/1) and measured using H PLC. The concentration of the samples is determined using a calibration line.

[7] = Competitive slurry experiments to determine the most stable polymorphic form; settings: competitive slurry in 2-propanol, XRPD
Description: No material of Crystal Form C, D, or E was available since these could not be reproduced. The competitive slurry was performed using Crystal Forms B, […], F and poorly crystalline material, with 10 mg of each form being added in two 1 mL vials.
The competitive slurry experiment in 2-methyl tetrahydrofuran gave a clear solution and the experiment in 2-propanol gave a white slurry.

[8] = solvent Methyl-tert-butyl ether

COc1ccc(COc2c(/C=C/C(=O)NO)ccc(OC)c2CC=C(C)C)cc1 [amorphous material of Compound BMX] showed a Degradation ([1]; listed as amorphous form) of 20%, a solubility at 24 h ([2]; solvent 2-Ethly-1-butanol) of 8800 µg/mL (≈ 22.1 mM) and a solubility at 15 min ([2]; solvent Acetonitrile) of 10 to 33 mg/mL (≈ 25.2 to 83 mM). The solubility at 24 h ([2]; solvent Anisole) was 9700 µg/mL (≈ 24.4 mM), the solubility at 15 min ([2]; solvent Dimethyl sulfoxide) was 31 to 94 mg/mL (≈ 78 to 236 mM) and the solubility at 15 min ([2]; solvent Ethyl butyl ketone) was 10 to 33 mg/mL (≈ 25.2 to 83 mM). The solubility at 24 h ([2]; solvent Ethyl sulfoxide) was 6900 µg/mL (≈ 17.4 mM), the solubility at 15 min ([2]; solvent Methanol) was 31 to 94 mg/mL (≈ 78 to 236 mM) and the solubility at 24 h [2, 8] was 3300 µg/mL (≈ 8.3 mM). For the same molecule, the USP classification ([2]; solvent 2-Ethly-1-butanol) was “Slightly soluble”, the USP classification ([2]; solvent Acetonitrile) was “Sparingly soluble” and the USP classification ([2]; solvent Anisole) was “Slightly soluble”. For the same molecule, the USP classification ([2]; solvent Dimethyl sulfoxide) was “Soluble”, the USP classification ([2]; solvent Ethyl butyl ketone) was “Sparingly soluble” and the USP classification ([2]; solvent Ethyl sulfoxide) was “Slightly soluble”. The USP classification ([2]; solvent Methanol) was “Soluble”, the USP classification [2, 8] was “Slightly soluble” and the USP classification ([2]; solvent Water) was “Practically insoluble”. For the same molecule, the USP classification ([2]; solvent n-Heptane) was “Practically insoluble” and the “Stability of the polymorphic form” value ([3]; listed as amorphous solid) was “converted into a new polymorphic form: Crystal Form E”.
In the case of COc1ccc(COc2c(/C=C/C(=O)NO)ccc(OC)c2CC=C(C)C)cc1 [Crystal Form B], the “Conversion on seeding with Crystal Form A” value ([4]; seeds of Crystal Form A, slurrying at 50° C.) is reported as “could not be converted into Crystal Form A”, the “Stability in water (in words)” value ([4]; slurry in water) is reported as “very stable in water; also recorded: remained stable in water” and the “Changes in XRPD on slurrying in water” value ([4]; water, room temperature, 4 hours, 24 hours, 4 days and 7 days) is reported as “No changes were observed in the XRPD”.
For COc1ccc(COc2c(/C=C/C(=O)NO)ccc(OC)c2CC=C(C)C)cc1 [Crystal Form A], the “Mass uptake (DVS)” value ([5]; 0% to 95% RH, 10% per step, 1 hour per increment) was 0.035 wt %, the “Hygroscopicity (in words)” value ([5]; DVS) was “non-hygroscopic; also recorded: not hygroscopic” and the “Stability under humid conditions (XRPD, DSC/TGA, microscopy pre and post DVS)” value ([5]; after DVS up to 95% RH) was “stable under these humid conditions”. The Degradation [1] was 10%, the “Stability under stress conditions compared with the amorphous form” value ([1]; photo-stress, 48 hours) was “significantly more stable than the amorphous form” and the Solubility ([6]; Ethyl acetate, room temperature, 24 hours) was 20.78 mg/mL (≈ 52.3 mM). For the same molecule, the solubility at 24 h ([6]; FaSSIF, pH 6.5, fassif, pH 6.5, room temperature, 24 hours) was 10 µg/mL (≈ 0.0252 mM), the solubility at 24 h ([6]; FeSSIF, pH 5.8, fessif, pH 5.8, room temperature, 24 hours) was 180 µg/mL (≈ 0.453 mM) and the “Solubility (in words)” value ([6]; Hexane, water, FaSSGF, FASSIF and phosphate buffer pH 7.4) was “insoluble”. For the same molecule, the “Changes in polymorphic form after solubility test (XRPD)” value ([6]; all solvents/buffers of Table 6, 24 hours at room temperature) was “No changes in polymorphic form were observed”, the solubility at 24 h ([6]; ethyl acetate, organic solvent or mixture, room temperature, 24 hours) was 20800 µg/mL (≈ 52.3 mM) and the “Most stable polymorphic form” value [7] was “most stable form”. For the same molecule, the “Most stable polymorphic form” value ([7]; listed as Cystal Form A) was “thermodynamically most stable form”.
In the case of COc1ccc(COc2c(/C=C/C(=O)NO)ccc(OC)c2CC=C(C)C)cc1 [Crystal Form C], the “Stability of the polymorphic form” value [3] is reported as “unstable and converted into Crystal Form D soon” and the “Stability of the polymorphic form” value ([3]; listed as Cystal Form C) is reported as “not a stable form and converted into polymorphic Crystal Form D”.
